In paper PMC3399817 (PLoS ONE, 2012):
pIC50: −log10 of the molar value.

How the values were obtained:
NEK1 = biological target: T1, NEK1 (Homo sapiens, UniProt Q96PY6); assay: SelectScreen in vitro kinase IC50; format: biochemical
T1 construct: purchased Ambit KINOMEscan (DiscoverX)
T1 sequence (Q96PY6 1-1258): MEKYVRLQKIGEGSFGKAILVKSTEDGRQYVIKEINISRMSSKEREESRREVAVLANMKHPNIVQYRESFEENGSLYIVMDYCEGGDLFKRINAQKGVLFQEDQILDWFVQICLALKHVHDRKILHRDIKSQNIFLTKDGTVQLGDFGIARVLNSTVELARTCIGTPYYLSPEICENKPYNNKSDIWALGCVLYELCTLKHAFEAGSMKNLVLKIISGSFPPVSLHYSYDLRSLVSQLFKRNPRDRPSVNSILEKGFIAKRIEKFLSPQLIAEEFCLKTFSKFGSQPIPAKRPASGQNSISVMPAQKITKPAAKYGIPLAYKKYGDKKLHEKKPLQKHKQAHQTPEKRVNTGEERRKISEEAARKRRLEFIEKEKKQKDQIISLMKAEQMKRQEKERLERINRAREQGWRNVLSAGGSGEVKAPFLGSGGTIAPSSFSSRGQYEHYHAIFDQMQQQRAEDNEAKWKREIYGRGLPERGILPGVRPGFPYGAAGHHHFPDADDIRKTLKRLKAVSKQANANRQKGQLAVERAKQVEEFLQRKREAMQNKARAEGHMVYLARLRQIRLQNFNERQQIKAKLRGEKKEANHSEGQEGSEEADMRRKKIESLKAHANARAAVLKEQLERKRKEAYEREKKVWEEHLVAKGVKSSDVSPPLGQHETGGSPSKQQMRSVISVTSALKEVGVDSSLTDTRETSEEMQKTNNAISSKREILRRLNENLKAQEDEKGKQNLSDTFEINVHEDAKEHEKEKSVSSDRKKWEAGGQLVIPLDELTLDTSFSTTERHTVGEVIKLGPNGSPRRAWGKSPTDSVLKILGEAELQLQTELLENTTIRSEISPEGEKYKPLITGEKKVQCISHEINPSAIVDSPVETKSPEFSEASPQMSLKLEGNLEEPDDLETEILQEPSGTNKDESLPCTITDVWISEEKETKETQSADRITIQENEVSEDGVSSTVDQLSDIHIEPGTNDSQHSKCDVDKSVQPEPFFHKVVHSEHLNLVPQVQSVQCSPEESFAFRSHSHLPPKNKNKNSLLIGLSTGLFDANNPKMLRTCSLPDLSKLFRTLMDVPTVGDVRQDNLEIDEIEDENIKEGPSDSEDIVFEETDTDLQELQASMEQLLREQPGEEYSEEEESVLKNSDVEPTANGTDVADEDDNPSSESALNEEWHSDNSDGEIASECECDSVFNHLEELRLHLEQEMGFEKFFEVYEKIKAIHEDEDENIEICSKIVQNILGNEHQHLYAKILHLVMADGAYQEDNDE
Experimental: First, we used Ambit's KINOMEscan™ technology to identify those kinases that are inhibited for substrate binding by the compounds, all assayed at 1 μM. Second, we used Invitrogen's SelectScreen® Biochemical Kinase Profiling Service to determine the in vitro IC50s for the compounds against specific kinases.

[1] = system: antigen-induced airway inflammation; design: method as in PMID 12766258; details: rats ref 14; cited from earlier work

For `COc1ccc(-c2cc3nccn3c(Nc3ncccc3C(N)=O)n2)cc1OC.Cl.Cl` [BAY61-3606, 2-[7-(3,4-dimethoxyphenyl)-imidazo [1,2-c]pyrimidin-5-ylamino] nicotinamide dihydrochloride, reference compound], the pIC50 (NEK1) is listed as 6.80 and the antigen-induced airway inflammation [1] is listed as “suppresses”.
